What was measured:
[1] = tested on: human lung cancer strain NCI-H441; assay: cells; settings: NCI-H441, 96 h, read-out: NCI-H441 IC50 (nM), NCI-H441 cell proliferation, 4 days, CellTiter-Glo;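 further: cell proliferation inhibition after four days measured by CellTiter-Glo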
[2] = molecular target: GDP-bound KRAS wild-type protein (Homo sapiens, UniProt P01116); assay: Binding to KRAS by surface plasmon resonance (SPR), Single Cycle Kinetics; settings: SPR, Single Cycle Kinetics, GDP-bound KRAS wild-type protein; read-out: KRAS KD
[3] = molecular target: GDP-bound NRAS wild-type protein (Homo sapiens, UniProt P01111); assay: Binding to NRAS by surface plasmon resonance (SPR), Single Cycle Kinetics; settings: ratio of KD for GDP-bound NRAS wild-type protein to KD for KRAS, SPR
[4] = molecular target: GDP-bound HRAS wild-type protein (Homo sapiens, UniProt P01112); assay: Binding to HRAS by surface plasmon resonance (SPR), Single Cycle Kinetics; settings: ratio of KD for GDP-bound HRAS wild-type protein to KD for KRAS, SPR
GDP-bound HRAS wild-type protein, sequence (P01112 whole entry): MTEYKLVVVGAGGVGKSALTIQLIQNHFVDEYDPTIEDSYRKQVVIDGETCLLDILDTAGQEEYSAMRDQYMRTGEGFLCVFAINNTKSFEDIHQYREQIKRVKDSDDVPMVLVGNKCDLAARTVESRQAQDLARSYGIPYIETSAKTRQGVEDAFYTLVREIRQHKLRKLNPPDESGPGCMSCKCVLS

GDP-bound NRAS wild-type protein, sequence (P01111 whole entry): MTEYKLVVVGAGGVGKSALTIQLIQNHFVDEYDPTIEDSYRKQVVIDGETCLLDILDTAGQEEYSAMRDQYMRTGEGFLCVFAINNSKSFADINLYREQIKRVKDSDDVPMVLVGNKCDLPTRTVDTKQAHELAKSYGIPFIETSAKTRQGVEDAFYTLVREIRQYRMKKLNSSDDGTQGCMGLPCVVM
GDP-bound KRAS wild-type protein, sequence (P01116 whole entry): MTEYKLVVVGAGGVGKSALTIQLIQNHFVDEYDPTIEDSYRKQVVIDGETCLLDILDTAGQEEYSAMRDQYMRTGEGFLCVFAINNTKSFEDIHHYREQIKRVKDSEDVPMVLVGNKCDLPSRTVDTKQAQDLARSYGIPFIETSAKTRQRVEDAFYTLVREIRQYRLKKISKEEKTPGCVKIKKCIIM

Structure (SMILES) | IC50 [1] [nM] | Kd [2] [nM] | NRAS/KRAS (KD ratio) [3] | HRAS/KRAS (KD ratio) [4]
CCO[C@@H]1C[C@H]2C(=O)NC3(CC(F)(F)C3)C(=O)N(C)[C@@H](C3CCCC3)C(=O)N3CCC[C@@H]3CC(=O)N(C)[C@@H](CC)C(=O)N[C@@H]([C@@H](C)CC)C(=O)N(C)CC(=O)N(C)[C@H]3C/C=C\CCN(C3=O)[C@@H](Cc3ccc(C(F)(F)F)cc3)C(=O)N(C)CC(=O)N[C@@H](CCc3cc(F)c(C(F)(F)F)c(F)c3)C(=O)N2C1 [PP1609] | 37 | 0.2 | A (a compound having 10 or more and less than 20 is denoted as A) | A (a compound having 10 or more and less than 20 is denoted as A)
CCO[C@@H]1C[C@H]2C(=O)NC3(CC(C)(C)C3)C(=O)N(C)[C@@H](C(CC)CC)C(=O)N3CCC[C@@H]3CC(=O)N(C)[C@@H](CC3CC3)C(=O)N[C@@H]([C@@H](C)CC)C(=O)N(C)CC(=O)N(C)[C@H]3C/C=C\CCN(C3=O)[C@@H](Cc3ccc(C(F)(F)F)cc3)C(=O)N(C)CC(=O)N[C@@H](CCc3cc(F)c(C(F)(F)F)c(F)c3)C(=O)N2C1 [PP1610] | 86.8 | 1.4 | A (a compound having 10 or more and less than 20 is denoted as A) | A (a compound having 10 or more and less than 20 is denoted as A)
CCO[C@@H]1C[C@H]2C(=O)NC3(CC(C)(C)C3)C(=O)N(C)[C@@H](C3CCCC3)C(=O)N3CCC[C@@H]3CC(=O)N(C)[C@@H](CC3CC3)C(=O)N[C@@H]([C@@H](C)CC)C(=O)N(C)CC(=O)N(C)[C@H]3C/C=C\CCN(C3=O)[C@@H](Cc3ccc(C(F)(F)F)cc3)C(=O)N(C)CC(=O)N[C@@H](CCc3cc(F)c(C(F)(F)F)c(F)c3)C(=O)N2C1 [PP1611] | 28 | 1.3 | B (a compound having 3 or more and less than 10 is denoted as B) | B (a compound having 3 or more and less than 10 is denoted as B)
CCO[C@@H]1C[C@H]2C(=O)NC3(CCC3)C(=O)N(C)[C@@H](C(CC)CC)C(=O)N3CCC[C@@H]3CC(=O)N(C)[C@@H](CC3CC3)C(=O)N[C@@H]([C@@H](C)CC)C(=O)N(C)CC(=O)N(C)[C@H]3C/C=C\CCN(C3=O)[C@@H](Cc3ccc(C(F)(F)F)cc3)C(=O)N(C)CC(=O)N[C@@H](CCc3cc(F)c(C(F)(F)F)c(F)c3)C(=O)N2C1 [PP1612] | 61.9 | 1.2 | B (a compound having 3 or more and less than 10 is denoted as B) | B (a compound having 3 or more and less than 10 is denoted as B)
CCO[C@@H]1C[C@H]2C(=O)NC3(CCC3)C(=O)N(C)[C@@H](C3CCCC3)C(=O)N3CCC[C@@H]3CC(=O)N(C)[C@@H](CC3CC3)C(=O)N[C@@H]([C@@H](C)CC)C(=O)N(C)CC(=O)N(C)[C@H]3C/C=C\CCN(C3=O)[C@@H](Cc3ccc(C(F)(F)F)cc3)C(=O)N(C)CC(=O)N[C@@H](CCc3cc(F)c(C(F)(F)F)c(F)c3)C(=O)N2C1 [PP1613] | 14.7 | 0.15 | B (a compound having 3 or more and less than 10 is denoted as B) | B (a compound having 3 or more and less than 10 is denoted as B)
CCO[C@@H]1C[C@H]2C(=O)NC3(CC(F)(F)C3)C(=O)N(C)[C@@H](C(CC)CC)C(=O)N3CCC[C@@H]3CC(=O)N(C)[C@@H](CC3CC3)C(=O)N[C@@H]([C@@H](C)CC)C(=O)N(C)CC(=O)N(C)[C@H]3C/C=C\CCN(C3=O)[C@@H](Cc3ccc(C(F)(F)F)cc3)C(=O)N(C)CC(=O)N[C@@H](CCc3cc(F)c(C(F)(F)F)c(F)c3)C(=O)N2C1 [PP1614] | 54.2 | 1.1 | A (a compound having 10 or more and less than 20 is denoted as A) | A (a compound having 10 or more and less than 20 is denoted as A)
CCO[C@@H]1C[C@H]2C(=O)NC3(CC(F)(F)C3)C(=O)N(C)[C@@H](C3CCCC3)C(=O)N3CCC[C@@H]3CC(=O)N(C)[C@@H](CC3CC3)C(=O)N[C@@H]([C@@H](C)CC)C(=O)N(C)CC(=O)N(C)[C@H]3C/C=C\CCN(C3=O)[C@@H](Cc3ccc(C(F)(F)F)cc3)C(=O)N(C)CC(=O)N[C@@H](CCc3cc(F)c(C(F)(F)F)c(F)c3)C(=O)N2C1 [PP1615] | 20.9 | 0.45 | B (a compound having 3 or more and less than 10 is denoted as B) | B (a compound having 3 or more and less than 10 is denoted as B)
CCO[C@@H]1C[C@H]2C(=O)NC3(CCC3)C(=O)N(C)[C@@H](C3CCCC3)C(=O)N3CCC[C@@H]3CC(=O)N(C)[C@@H](CC3CC3)C(=O)N[C@@H]([C@@H](C)CC)C(=O)N(C)CC(=O)N(C)[C@H]3C/C=C\CCN(C3=O)[C@@H](Cc3ccc(C(F)(F)F)cc3)C(=O)N(C)CC(=O)N[C@@H](CCc3ccc(C(F)(F)F)c(OC)c3)C(=O)N2C1 [PP1616] | 33.5 | 0.29 | B (a compound having 3 or more and less than 10 is denoted as B) | B (a compound having 3 or more and less than 10 is denoted as B)
CCO[C@@H]1C[C@H]2C(=O)NC3(CC(C)(C)C3)C(=O)N(C)[C@@H](C3CCCC3)C(=O)N3CCC[C@@H]3CC(=O)N(C)[C@@H](CC)C(=O)N[C@@H]([C@@H](C)CC)C(=O)N(C)CC(=O)N(C)[C@H]3C/C=C\CCN(C3=O)[C@@H](CC3CCCCC3)C(=O)N(C)CC(=O)N[C@@H](CCc3cc(F)c(C(F)(F)F)c(F)c3)C(=O)N2C1 [PP1620] | 170 | 6.4 | B (a compound having 3 or more and less than 10 is denoted as B) | B (a compound having 3 or more and less than 10 is denoted as B)
CCO[C@@H]1C[C@H]2C(=O)NC3(CC(C)(C)C3)C(=O)N(C)[C@@H](C3CCCC3)C(=O)N(C)[C@H](CC)CC(=O)N(C)[C@@H](CC)C(=O)N[C@@H]([C@@H](C)CC)C(=O)N(C)CC(=O)N(C)[C@H]3C/C=C\CCN(C3=O)[C@@H](Cc3ccc(C(F)(F)F)cc3)C(=O)N(C)CC(=O)N[C@@H](CCc3cc(F)c(C(F)(F)F)c(F)c3)C(=O)N2C1 [PP1623] | 4.5 | 0.19 | A (a compound having 10 or more and less than 20 is denoted as A) | A (a compound having 10 or more and less than 20 is denoted as A)
CCO[C@@H]1C[C@H]2C(=O)NC3(CCC3)C(=O)N(C)[C@@H](C(CC)CC)C(=O)N(C)[C@H](CC)CC(=O)N(C)[C@@H](CC)C(=O)N[C@@H]([C@@H](C)CC)C(=O)N(C)CC(=O)N(C)[C@H]3C/C=C\CCN(C3=O)[C@@H](Cc3ccc(C(F)(F)F)cc3)C(=O)N(C)CC(=O)N[C@@H](CCc3cc(F)c(C(F)(F)F)c(F)c3)C(=O)N2C1 [PP1624] | 55.8 | 1.1 | A (a compound having 10 or more and less than 20 is denoted as A) | A (a compound having 10 or more and less than 20 is denoted as A)
CCO[C@@H]1C[C@H]2C(=O)NC3(CCC3)C(=O)N(C)[C@@H](C3CCCC3)C(=O)N(C)[C@H](CC)CC(=O)N(C)[C@@H](CC)C(=O)N[C@@H]([C@@H](C)CC)C(=O)N(C)CC(=O)N(C)[C@H]3C/C=C\CCN(C3=O)[C@@H](Cc3ccc(C(F)(F)F)cc3)C(=O)N(C)CC(=O)N[C@@H](CCc3cc(F)c(C(F)(F)F)c(F)c3)C(=O)N2C1 [PP1625] | 20.2 | 0.29 | B (a compound having 3 or more and less than 10 is denoted as B) | B (a compound having 3 or more and less than 10 is denoted as B)
